Measured values as given in the supplement of paper PMC11208160.

Assay: recombinant UMI read abundance after kanamycin selection (control-corrected) (log10(CPM+1)); higher = more efficient recombination; extreme values may be limits of the assay; sequences stand for … in AGTGCAGAGAAAATCGGCCAGTTTTCTCTGCCTGCAGTCCGCATGCCGTGGGACCCCTTGGGTTCTAACCTGTTGCCTAGATTTATGCAGCGGACTGCCTTTCTCCCAAAGTGATAAACCGG…AGGTTGGTTTCACT; site = the 11-nt donor
Outline: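 Reported values are log10(CPM+1) from a pooled Escherichia coli screen of donor and donor-binding-loop pairs for the IS621 bridge recombinase. Selection used IPTG (0.07 mM) plus kanamycin, against unselected plating, each in two replicates. Recombinant UMIs were amplified across the donor–target junction, sequenced, converted to CPM, averaged over replicates and scaled by control-derived factors.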
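Further: IS621 bridge recombinase in Escherichia coli cells against a fixed T5 target plasmid.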

Sequence	recombinant UMI read abundance (log10)
CCGAATACATGGACCGGTTTTCCCGGTAATCCGTATTTGGC (site CCTAATACTGC)	0
CCGACATCATGGACCGGTTTTCCCGGTAATCCGTATTTGCT (site CAGACATCTAG)	0
CCGACATCATGGACCGGTTTTCCCGGTAATCCGTATTTGCT (site CCGACATCTAG)	0.421
CCGACATCATGGACCGGTTTTCCCGGTAATCCGTATTTGCT (site CGGACATCTAG)	0
CCGACATCATGGACCGGTTTTCCCGGTAATCCGTATTTGCT (site CTGACATCTAG)	0
CCGACCTCATGGACCGGTTTTCCCGGTAATCCGTATTTGGT (site CCGACCTCTAC)	0.121
CCGATATCATGGACCGGTTTTCCCGGTAATCCGTATTTGTC (site CCAATATCTGA)	0
CCGATATCATGGACCGGTTTTCCCGGTAATCCGTATTTGTC (site CCCATATCTGA)	0
CCGATATCATGGACCGGTTTTCCCGGTAATCCGTATTTGTC (site CCGATATCTGA)	1.21
CCGATATCATGGACCGGTTTTCCCGGTAATCCGTATTTGTC (site CCTATATCTGA)	0
CCGATGCCATGGACCGGTTTTCCCGGTAATCCGTATTTGGA (site CCGATGCCTTC)	0.0103
CCGATTCCATGGACCGGTTTTCCCGGTAATCCGTATTTGTT (site CCGATTCCTAA)	0
CCGATTCCATGGACCGGTTTTCCCGGTAATCCGTATTTGTT (site CGGAATCCTAA)	0.00507
CCGCAGTCATGGACCGGTTTTCCCGGTAATCCGTATTTGGC (site CCGCAGTCTGC)	0
CCGCATACATGGACCGGTTTTCCCGGTAATCCGTATTTGTT (site CCGCATACTAA)	0.39
CCGGAAGCATGGACCGGTTTTCCCGGTAATCCGTATTTGAC (site CCGGAAGCTGT)	0.161
CCGGTAGCATGGACCGGTTTTCCCGGTAATCCGTATTTGAC (site CCGGTAGCTGT)	2.38
CCGGTATCATGGACCGGTTTTCCCGGTAATCCGTATTTGAC (site CCGGTATCTGT)	1.45
CCGGTATCATGGACCGGTTTTCCCGGTAATCCGTATTTGAC (site CTAGTATCTGT)	0

Sequence	recombinant UMI read abundance (log10)
CCGGTGGCATGGACCGGTTTTCCCGGTAATCCGTATTTGAC (site CCGGTGGCTGT)	1.58
CCGTCAGCATGGACCGGTTTTCCCGGTAATCCGTATTTGTG (site CCGTAAGCTCA)	0
CCGTCAGCATGGACCGGTTTTCCCGGTAATCCGTATTTGTG (site CCGTCAGCTCA)	0.00531
CCGTCAGCATGGACCGGTTTTCCCGGTAATCCGTATTTGTG (site CCGTGAGCTCA)	0.00599
CCGTCAGCATGGACCGGTTTTCCCGGTAATCCGTATTTGTG (site CCGTTAGCTCA)	0.00541
CCGTCATCATGGACCGGTTTTCCCGGTAATCCGTATTTGCT (site CCGTCATCTAG)	0
CCGTCATCATGGACCGGTTTTCCCGGTAATCCGTATTTGCT (site CGATCATCTAG)	0.00968
CCGTCGCCATGGACCGGTTTTCCCGGTAATCCGTATTTGAT (site CCGTCGCCTAT)	0.00407
CCGTCGGCATGGACCGGTTTTCCCGGTAATCCGTATTTGTG (site CCGTCGGCTCA)	0.0197
CCGTGAGCATGGACCGGTTTTCCCGGTAATCCGTATTTGTG (site CCGTAAGCTCA)	0.0763
CCGTGAGCATGGACCGGTTTTCCCGGTAATCCGTATTTGTG (site CCGTCAGCTCA)	0
CCGTGAGCATGGACCGGTTTTCCCGGTAATCCGTATTTGTG (site CCGTGAGCTCA)	0.568
CCGTGAGCATGGACCGGTTTTCCCGGTAATCCGTATTTGTG (site CCGTTAGCTCA)	0.00536
CCGTTAGCATGGACCGGTTTTCCCGGTAATCCGTATTTGTG (site ACGTTAGCTCA)	0.0114
CCGTTAGCATGGACCGGTTTTCCCGGTAATCCGTATTTGTG (site CAGTTAGCTCA)	0.00951
CCGTTAGCATGGACCGGTTTTCCCGGTAATCCGTATTTGTG (site CCATTAGCTCA)	0.434
CCGTTAGCATGGACCGGTTTTCCCGGTAATCCGTATTTGTG (site CCCTTAGCTCA)	0.0161
CCGTTAGCATGGACCGGTTTTCCCGGTAATCCGTATTTGTG (site CCGATAGCTCA)	0.0175
CCGTTAGCATGGACCGGTTTTCCCGGTAATCCGTATTTGTG (site CCGCTAGCTCA)	0.00432

Sequence	recombinant UMI read abundance (log10)
CCGTTAGCATGGACCGGTTTTCCCGGTAATCCGTATTTGTG (site CCGGTAGCTCA)	0.014
CCGTTAGCATGGACCGGTTTTCCCGGTAATCCGTATTTGTG (site CCGTAAGCTCA)	0.00568
CCGTTAGCATGGACCGGTTTTCCCGGTAATCCGTATTTGTG (site CCGTCAGCTCA)	0.0147
CCGTTAGCATGGACCGGTTTTCCCGGTAATCCGTATTTGTG (site CCGTGAGCTCA)	0.0389
CCGTTAGCATGGACCGGTTTTCCCGGTAATCCGTATTTGTG (site CCGTTAACTCA)	0.0199
CCGTTAGCATGGACCGGTTTTCCCGGTAATCCGTATTTGTG (site CCGTTACCTCA)	0
CCGTTAGCATGGACCGGTTTTCCCGGTAATCCGTATTTGTG (site CCGTTAGCTAA)	0.0124
CCGTTAGCATGGACCGGTTTTCCCGGTAATCCGTATTTGTG (site CCGTTAGCTCA)	0.386
CCGTTAGCATGGACCGGTTTTCCCGGTAATCCGTATTTGTG (site CCGTTAGCTCC)	0.0262
CCGTTAGCATGGACCGGTTTTCCCGGTAATCCGTATTTGTG (site CCGTTAGCTCG)	0
CCGTTAGCATGGACCGGTTTTCCCGGTAATCCGTATTTGTG (site CCGTTAGCTCT)	0
CCGTTAGCATGGACCGGTTTTCCCGGTAATCCGTATTTGTG (site CCGTTAGCTGA)	0
CCGTTAGCATGGACCGGTTTTCCCGGTAATCCGTATTTGTG (site CCGTTAGCTTA)	0
CCGTTAGCATGGACCGGTTTTCCCGGTAATCCGTATTTGTG (site CCGTTATCTCA)	0
CCGTTAGCATGGACCGGTTTTCCCGGTAATCCGTATTTGTG (site CCGTTCGCTCA)	0
CCGTTAGCATGGACCGGTTTTCCCGGTAATCCGTATTTGTG (site CCGTTGGCTCA)	0.0165
CCGTTAGCATGGACCGGTTTTCCCGGTAATCCGTATTTGTG (site CCGTTTGCTCA)	0.00521
CCGTTAGCATGGACCGGTTTTCCCGGTAATCCGTATTTGTG (site CCTTTAGCTCA)	0.015
CCGTTAGCATGGACCGGTTTTCCCGGTAATCCGTATTTGTG (site CGGTTAGCTCA)	0.00954
